In PubChem BioAssay AID248 (DTP/NCI, 2004):
Values joined by “and” are separate entries in the source; they are usually repeats but may differ in a detail not shown here. Identical values can stand only once. Inconclusive results and toxic doses are left out. Cut-off read from the data, not from the text of the source: active = T/C of 150% or more; inactive = T/C below 125%.

Tested on: L1210 leukemia ip in BDF1 mice, survival T/C
Assay: NCI In Vivo Anticancer Drug Screen. Data for tumor model L1210 Leukemia (intraperitoneal) in B6D2F1 (BDF1) mice
Details: endpoint: mean survival time, higher = longer survival
In short: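 Tumor cells were implanted, animals were treated, and survival was followed. The result divides the treated measurement by the vehicle-control measurement.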

[1] = dose: 25.0 mg/kg/injection, schedule: Q04DX003 (ip), vehicle: saline
[2] = dose: 100.0 mg/kg/injection, schedule: Q01DX009 (ip), vehicle: saline with Tween-80
[3] = dose: 100.0 mg/kg/injection, schedule: Q04DX003 (ip), vehicle: saline with Tween-80
[4] = dose: 200.0 mg/kg/injection, schedule: Q01DX009 (ip), vehicle: saline with Tween-80
[5] = dose: 200.0 mg/kg/injection, schedule: Q04DX003 (ip), vehicle: saline with Tween-80
[6] = dose: 400.0 mg/kg/injection, schedule: Q01DX009 (ip), vehicle: saline with Tween-80
[7] = dose: 400.0 mg/kg/injection, schedule: Q04DX003 (ip), vehicle: saline with Tween-80
[8] = dose: 100.0 mg/kg/injection, schedule: Q01DX009 (ip), vehicle: Klucel (hydroxypropylcellulose) (HPC)
[9] = dose: 200.0 mg/kg/injection, schedule: Q01DX009 (ip), vehicle: Klucel (hydroxypropylcellulose) (HPC)
[10] = dose: 400.0 mg/kg/injection, schedule: Q01DX009 (ip), vehicle: Klucel (hydroxypropylcellulose) (HPC)
[11] = dose: 100.0 mg/kg/injection, schedule: Q04DX003 (ip), vehicle: saline
[12] = dose: 100.0 mg/kg/injection, schedule: Q04DX003 (ip), vehicle: Klucel (hydroxypropylcellulose) (HPC)
[13] = dose: 200.0 mg/kg/injection, schedule: Q04DX003 (ip), vehicle: Klucel (hydroxypropylcellulose) (HPC)
[14] = dose: 400.0 mg/kg/injection, schedule: Q04DX003 (ip), vehicle: Klucel (hydroxypropylcellulose) (HPC)
[15] = dose: 50.0 mg/kg/injection, schedule: Q01DX009 (ip), vehicle: saline with Tween-80
[16] = dose: 50.0 mg/kg/injection, schedule: Q01DX001 (ip), vehicle: saline
[17] = dose: 100.0 mg/kg/injection, schedule: Q01DX001 (ip), vehicle: saline
[18] = dose: 200.0 mg/kg/injection, schedule: Q01DX001 (ip), vehicle: saline
[19] = dose: 400.0 mg/kg/injection, schedule: Q01DX001 (ip), vehicle: saline

Measured: T/C

C[n+]1ccc2ccccc2c1CCCc1nccc2ccccc12
inactive: dose: 6.25 mg/kg/injection, schedule: Q01DX009 (ip), vehicle: saline with Tween-80 111 % of control | dose: 6.25 mg/kg/injection, schedule: Q04DX003 (ip), vehicle: saline 97 % of control | dose: 12.5 mg/kg/injection, schedule: Q01DX009 (ip), vehicle: saline with Tween-80 117 % of control | dose: 12.5 mg/kg/injection, schedule: Q04DX003 (ip), vehicle: saline 100 % of control | dose: 25.0 mg/kg/injection, schedule: Q01DX009 (ip), vehicle: saline with Tween-80 112 % of control | [1] 114 % of control

CCOc1cc(/C=N/NC(=O)C(O)C(O)C(O)C(O)CO)ccc1O (stereo not given)
inactive: [2] 98 % of control and 103 % of control | dose: 100.0 mg/kg/injection, schedule: Q04DX002 (ip), vehicle: saline with Tween-80 100 % of control and 90 % of control | [3] 95 % of control | [4] 95 % of control and 91 % of control | dose: 200.0 mg/kg/injection, schedule: Q04DX002 (ip), vehicle: saline with Tween-80 108 % of control and 116 % of control | [5] 95 % of control | [6] 88 % of control and 90 % of control | dose: 400.0 mg/kg/injection, schedule: Q04DX002 (ip), vehicle: saline with Tween-80 90 % of control and 91 % of control | [7] 93 % of control

COC(=O)c1ccc(OC(=O)Nc2ccc(C)cc2)cc1
inactive: [8] 101 % of control | [9] 100 % of control | [10] 101 % of control

O=C1c2ccccc2CCC12OC2c1ccc(Cl)cc1 (stereo not given)
inactive: dose: 50.0 mg/kg/injection, schedule: Q01DX009 (ip), vehicle: saline 102 % of control | dose: 100.0 mg/kg/injection, schedule: Q01DX009 (ip), vehicle: saline 107 % of control | [3] 108 % of control | dose: 200.0 mg/kg/injection, schedule: Q01DX009 (ip), vehicle: saline 98 % of control | [5] 95 % of control | dose: 400.0 mg/kg/injection, schedule: Q01DX009 (ip), vehicle: saline 100 % of control | [7] 103 % of control

COc1cc(/C(C)=C2/SC(=S)NC2=O)cc(OC)c1OC
inactive: dose: 100.0 mg/kg/injection, schedule: Q01DX001 (ip), vehicle: carboxymethylcellulose (CMC) 92 % of control | dose: 200.0 mg/kg/injection, schedule: Q01DX001 (ip), vehicle: carboxymethylcellulose (CMC) 90 % of control | dose: 400.0 mg/kg/injection, schedule: Q01DX001 (ip), vehicle: carboxymethylcellulose (CMC) 95 % of control

CCC(C1CCC(O)CC1)C(CC)C1CCC(C2=CC(=O)OC2)CC1 (stereo not given)
inactive: [1] 100 % of control | dose: 50.0 mg/kg/injection, schedule: Q04DX003 (ip), vehicle: saline 94 % of control | [11] 94 % of control

Nc1c(-c2ccccc2)nnn1-c1ccc2ccccc2c1
inactive: dose: 100.0 mg/kg/injection, schedule: Q04DX002 (ip), vehicle: gum acacia 101 % of control | dose: 200.0 mg/kg/injection, schedule: Q04DX002 (ip), vehicle: gum acacia 96 % of control | dose: 400.0 mg/kg/injection, schedule: Q04DX002 (ip), vehicle: gum acacia 96 % of control

O=C(OCCn1c(-c2ccccn2)nc2ccccc21)C(O)(c1ccccc1)c1ccccc1
inactive: dose: 100.0 mg/kg/injection, schedule: Q01DX001 (ip), vehicle: Klucel (hydroxypropylcellulose) (HPC) 102 % of control | dose: 200.0 mg/kg/injection, schedule: Q01DX001 (ip), vehicle: Klucel (hydroxypropylcellulose) (HPC) 93 % of control

N#Cc1cc2c(N)[nH]nc2nc1N
inactive: dose: 25.0 mg/kg/injection, schedule: Q01DX009 (ip), vehicle: Klucel (hydroxypropylcellulose) (HPC) 89 % of control | dose: 50.0 mg/kg/injection, schedule: Q01DX009 (ip), vehicle: Klucel (hydroxypropylcellulose) (HPC) 93 % of control | [8] 86 % of control and 90 % of control | [12] 98 % of control | [13] 95 % of control | [14] 101 % of control

O=C(Nc1ccc(Cl)c([N+](=O)[O-])c1)Nc1nc(C(F)(F)F)cc(=O)[nH]1
inactive: [8] 98 % of control | [9] 95 % of control | [10] 93 % of control

COC(=O)c1nc[nH]c1N=[N+]=[N-]
inactive: dose: 100.0 mg/kg/injection, schedule: Q01DX001 (ip), vehicle: other 97 % of control

O=C1OC2C(I)C3CC1C2C3 (stereo not given)
inactive: [15] 96 % of control | [2] 95 % of control

c1ccc(Cn2ccc3ccncc32)cc1
inactive: dose: 75.0 mg/kg/injection, schedule: Q01DX001 (ip), vehicle: other 96 % of control

CCOC(=S)SCC#CCSC(=S)OCC
inactive: dose: 100.0 mg/kg/injection, schedule: Q04DX002 (sc), vehicle: olive oil, sesame oil, peanut oil 104 % of control | dose: 200.0 mg/kg/injection, schedule: Q04DX002 (sc), vehicle: olive oil, sesame oil, peanut oil 114 % of control | dose: 400.0 mg/kg/injection, schedule: Q04DX002 (sc), vehicle: olive oil, sesame oil, peanut oil 96 % of control

COc1cc(/C=N/N2CCN(/N=C/c3cc(OC)c(OC)c(OC)c3)CC2)cc(OC)c1OC
inactive: [12] 103 % of control | [13] 101 % of control | [14] 103 % of control

C=C(C)C1CCC(C)CC1O (stereo not given)
inactive: [15] 111 % of control | [2] 97 % of control | [4] 108 % of control

O=c1ccc(=O)n(CCc2ccccn2)[nH]1
inactive: [16] 97 % of control | [17] 97 % of control | [18] 94 % of control | [19] 97 % of control

COC(c1ccccc1)(c1ccccc1)c1ccccc1
inactive: [16] 91 % of control | [17] 103 % of control | [18] 101 % of control | [19] 95 % of control

CC(Cc1ccccc1)C(=O)c1ccccc1 (stereo not given)
inactive: dose: 100.0 mg/kg/injection, schedule: Q01DX001 (ip), vehicle: saline with Tween-80 102 % of control | [2] 102 % of control | dose: 200.0 mg/kg/injection, schedule: Q01DX001 (ip), vehicle: saline with Tween-80 94 % of control | [4] 97 % of control | dose: 400.0 mg/kg/injection, schedule: Q01DX001 (ip), vehicle: saline with Tween-80 94 % of control | [6] 98 % of control

C[N+](C)(C)C1/C=C(/Cl)CC/C=C(/Cl)C1 (stereo not given)
inactive: dose: 9.38 mg/kg/injection, schedule: Q01DX001 (ip), vehicle: saline 96 % of control | dose: 18.75 mg/kg/injection, schedule: Q01DX001 (ip), vehicle: saline 89 % of control | dose: 37.5 mg/kg/injection, schedule: Q01DX001 (ip), vehicle: saline 97 % of control

C[C@]12CCC(=O)C=C1CC[C@@H]1[C@@H]2C(=O)C[C@]2(C)C3=CC(=O)O[C@H]3C[C@@H]12
inactive: dose: 25.0 mg/kg/injection, schedule: Q01DX015 (sc), vehicle: steriod suspending solution 117 % of control | dose: 50.0 mg/kg/injection, schedule: Q01DX015 (sc), vehicle: steriod suspending solution 102 % of control | dose: 100.0 mg/kg/injection, schedule: Q01DX001 (sc), vehicle: steriod suspending solution 94 % of control | dose: 100.0 mg/kg/injection, schedule: Q01DX015 (sc), vehicle: steriod suspending solution 102 % of control | dose: 200.0 mg/kg/injection, schedule: Q01DX001 (sc), vehicle: steriod suspending solution 103 % of control | dose: 200.0 mg/kg/injection, schedule: Q01DX015 (sc), vehicle: steriod suspending solution 91 % of control | dose: 400.0 mg/kg/injection, schedule: Q01DX001 (sc), vehicle: steriod suspending solution 103 % of control | dose: 400.0 mg/kg/injection, schedule: Q01DX015 (sc), vehicle: steriod suspending solution 97 % of control | dose: 600.0 mg/kg/injection, schedule: Q01DX015 (sc), vehicle: steriod suspending solution 95 % of control

CC1=CC(C)(C)SC(=S)N1
inactive: dose: 75.0 mg/kg/injection, schedule: Q01DX009 (ip), vehicle: Klucel (hydroxypropylcellulose) (HPC) 98 % of control | [11] 111 % of control | dose: 150.0 mg/kg/injection, schedule: Q01DX009 (ip), vehicle: Klucel (hydroxypropylcellulose) (HPC) 104 % of control | dose: 200.0 mg/kg/injection, schedule: Q04DX003 (ip), vehicle: saline 104 % of control | dose: 300.0 mg/kg/injection, schedule: Q01DX009 (ip), vehicle: Klucel (hydroxypropylcellulose) (HPC) 108 % of control | dose: 400.0 mg/kg/injection, schedule: Q04DX003 (ip), vehicle: saline 96 % of control
